One assay relates to Colo205. Briefly: Cytostatic activity on human colon cancer cell line Colo205 (WST-1). The class given is cell-based. The following applies: Homo sapiens, COLO 205, 72 h, Colo205 cells, test compound 10 μmol/L, WST-1, read-out: cytostatic rate (%) Colo205 (10 μmol/L). On the procedure:
(§1) The cytostatic rates of the test compound on the human pancreatic cancer cell line AsPC-1 and the human colon cancer cell line Colo205 were determined in the following manner.
(§2) For culturing AsPC-1, RPMI 1640 medium containing 20% fetal bovine serum, 1 mmol/L sodium pyruvate, 10 mmol/L HEPES, 4.5 g/L glucose and penicillin/streptomycin (1:1). The Colo205 cell was cultured using RPMI 1640 medium containing 10% fetal bovine serum, 1 mmol/L sodium pyruvate, 10 mmol/L HEPES, 4.5 g/L glucose and penicillin/streptomycin (1:1) was used. Each 80 μL of the AsPC-1 cell having a concentration of 5×10^4 cells/mL (or the Colo205 having a concentration of 5×10^4 cells/mL) was inoculated to wells of a TC MICROWELL 96F plate (Nalge Nunc International, Catalog No. 167008) and was cultured in a 5% carbon dioxide gas incubator at 37° C. for 24 hours. Each 20 μL of a solution of the test compound in DMSO which was prepared to make the final concentration to 1 μmol/L or 10 μmol/L, was added to each well. Each 20 μL of DMSO was added to the control well and the blank well to a final concentration of 0.1%. After adding the test compound, the cell was incubated in a 5% carbon dioxide gas incubator at 37° C. for 72 hours except for the blank well. After adding 20 μL of WST-1 reagent which was diluted to 50% by RPMI medium to each well, the cells were further incubated at 37° C. for 2 hours. Then, the absorbances at 450 nm (reference wavelength: 690 nm) were determined with a microplate spectrophotometer SPECTRA max 340PC. The cytostatic rate (%) was then determined in the similar manner to the above multiple myeloma cell lines.

Another assay deals with AsPC-1. Put plainly: Cytostatic activity on human pancreatic cancer cell line AsPC-1 (WST-1). The following applies: Homo sapiens, ASPC1, 72 h, AsPC-1 cells, test compound 10 μmol/L, WST-1, read-out: cytostatic rate (%) AsPC-1 (10 μmol/L). The class given is cell-based. The protocol: as §1, §2
Background: Tetrazolium dyes change colour on reduction, which living cells bring about.

A further assay concerns the target T1, IGF-1R (Homo sapiens, UniProt P08069).
T1 construct: purchased Upstate Co. 14-465
Put plainly: IGF-1R inhibitory activity (kinase reaction, time-resolved fluoroimmunoassay). To be noted: IGF-1R active recombinant enzyme, test compound 10 μmol/L. The format is biochemical. In outline: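 Compounds were tested at a single 10 μmol/L concentration. Each was incubated with recombinant IGF-1R (200 μg/L), 10 mmol/L ATP, MgCl2/MnCl2 and Na3VO4 (pH 7.5) on immobilized poly(Glu-Tyr) peptide for 30 min at 24° C. Eu-anti-phosphotyrosine time-resolved fluorescence (340/615 nm) gave relative activity against no-compound and no-enzyme wells, reported as % inhibition.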

The next assay has as its system NCI-H929. Briefly: Cytostatic activity on human multiple myeloma cell line NCI-H929 (WST-1). The class given is cell-based. To be noted: Homo sapiens, NCI-H929, 72 h, NCI-H929 cells, test compound 1 μmol/L, WST-1; read-out: cytostatic rate (%) H929 (1 μmol/L). The essentials:
(§3)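 Cytostatic rate is 100 minus % growth relative to DMSO-only wells (100%) and blank wells (0%), read by WST-1 absorbance at 450/690 nm after 2 h. Compound at 1 or 10 μmol/L final was applied for 72 h at 37 °C to cells seeded 24 h earlier.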

For another assay, the system named is KMS-11. Briefly: Cytostatic activity on human multiple myeloma cell line KMS-11 (WST-1). The class given is cell-based. To be noted: Homo sapiens, KMS-11, 72 h, KMS-11 cells, test compound 1 μmol/L, WST-1; read-out: cytostatic rate (%) KMS-11 (1 μmol/L). In outline:
as §3

Results on two compounds are retold here after US7605272B2, “IGF-1R inhibitor” (Kyowa Hakko Kirin Co., Ltd., priority 2005, dated 2009).

T1 sequence (P08069 959-1367 limits assumed): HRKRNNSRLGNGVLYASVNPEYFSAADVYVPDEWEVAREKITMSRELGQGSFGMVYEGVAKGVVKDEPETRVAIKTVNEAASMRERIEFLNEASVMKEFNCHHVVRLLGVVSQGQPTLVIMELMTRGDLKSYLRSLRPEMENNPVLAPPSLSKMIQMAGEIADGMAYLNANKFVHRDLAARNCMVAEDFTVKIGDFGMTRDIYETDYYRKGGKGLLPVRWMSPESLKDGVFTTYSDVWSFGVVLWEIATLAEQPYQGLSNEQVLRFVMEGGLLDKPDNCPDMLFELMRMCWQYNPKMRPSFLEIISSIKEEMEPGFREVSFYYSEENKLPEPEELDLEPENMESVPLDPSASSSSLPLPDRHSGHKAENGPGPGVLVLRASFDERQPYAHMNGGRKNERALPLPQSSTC

Turning to `Cc1ccsc1C(=O)Nc1cc(CN2CCN(CC(C)(C)O)CC2)ccc1/C=C/c1n[nH]c2ccccc12` [Compound 312, (E)-N-{5-[4-(2-hydroxy-2-methylpropyl)piperazin-1-ylmethyl]-2-[2-(1H-indazol-3-yl)vinyl]phenyl}-3-methylthiophene-2-carboxamide], the values for the inhibition at 10 µM in the assay on Colo205, with AsPC-1 and at IGF-1R were 120%, 101% and 105%, respectively. Moreover, the inhibition at 1 µM was 115% with NCI-H929 and 108% in the assay with KMS-11.

For the compound `Cc1ccsc1C(=O)Nc1cc(CN2CCN(CCOCCO)CC2)ccc1/C=C/c1n[nH]c2ccccc12` [Compound 318, (E)-N-{5-{4-[2-(2-hydroxyethoxy)ethyl]piperazin-1-ylmethyl}-2-[2-(1H-indazol-3-yl)vinyl]-phenyl}-3-methylthiophene-2-carboxamide], the figures for the inhibition at 10 µM in the assay with Colo205, with AsPC-1 and at IGF-1R were 120%, 103% and 94.7%, respectively. In addition, the inhibition at 1 µM in the assay with NCI-H929 was 122%; in the assay on KMS-11 it was 102%.
